This note sets out measurements from ChEMBL document CHEMBL1139821, “Synthesis and antitubercular activity of lipophilic moxifloxacin and gatifloxacin derivatives” (2007).

The structures appear in SMILES notation. Values after ≈ are worked out from the molar mass of the structure shown.

This assay relates to Mycobacterium tuberculosis. Briefly: Antitubercular activity against Mycobacterium tuberculosis H37Rv. It counts as functional.
In the case of `CCCCCCCCCCCCNCCNc1c(F)cc2c(=O)c(C(=O)O)cn(C3CC3)c2c1OC`, the lowest concentration to inhibit growth (MIC) was 1.25 µg/mL (≈ 2.48 µM). As for `CCCCCCCCCCNCCNc1c(F)cc2c(=O)c(C(=O)O)cn(C3CC3)c2c1OC`, the figure is 0.62 µg/mL (≈ 1.3 µM). As for `CCCCC(CC)CNCCNc1c(F)cc2c(=O)c(C(=O)O)cn(C3CC3)c2c1OC` (centres undefined), the figure is 0.62 µg/mL (≈ 1.39 µM); as for `CCCCCCCCCCCCCCNCCCNc1c(F)cc2c(=O)c(C(=O)O)cn(C3CC3)c2c1OC`, 0.62 µg/mL (≈ 1.14 µM); as for `COc1c(N2CCNC(C)C2)c(F)cc2c(=O)c(C(=O)O)cn(C3CC3)c12` (centres undefined) [GATIFLOXACIN], 0.1 µg/mL (≈ 0.266 µM). Under `CCCCCCNCCCNc1c(F)cc2c(=O)c(C(=O)O)cn(C3CC3)c2c1OC` stands 50 µg/mL (≈ 115 µM); under `CCCCCCCCNCCNc1c(F)cc2c(=O)c(C(=O)O)cn(C3CC3)c2c1OC`, 12.5 µg/mL (≈ 27.9 µM); under `CCCCCCCCCCCCCCNCCNc1c(F)cc2c(=O)c(C(=O)O)cn(C3CC3)c2c1OC`, 6.25 µg/mL (≈ 11.8 µM).

Regarding `CCCCCCCCNCCCNc1c(F)cc2c(=O)c(C(=O)O)cn(C3CC3)c2c1OC`, the MIC (in general, the lowest concentration found to suppress growth) was determined as 1.25 µg/mL (≈ 2.71 µM). On to `CCCCCCNCCNc1c(F)cc2c(=O)c(C(=O)O)cn(C3CC3)c2c1OC`, for which the MIC turned out to be 5 µg/mL (≈ 11.9 µM). Under `CCCCCCCCCCCCNCCCNc1c(F)cc2c(=O)c(C(=O)O)cn(C3CC3)c2c1OC` stands 0.62 µg/mL (≈ 1.2 µM); under `CCCCCCCCCCNCCCNc1c(F)cc2c(=O)c(C(=O)O)cn(C3CC3)c2c1OC`, 0.31 µg/mL (≈ 0.633 µM).

Take `CCCCC(CC)CNCCCNc1c(F)cc2c(=O)c(C(=O)O)cn(C3CC3)c2c1OC` (centres undefined): the MIC was 2.5 µg/mL (≈ 5.42 µM). In turn, `CO[C@H]1/C=C/O[C@@]2(C)Oc3c(C)c(O)c4c(O)c(c(/C=N/N5CCN(C)CC5)c(O)c4c3C2=O)NC(=O)/C(C)=C\C=C\[C@H](C)[C@H](O)[C@@H](C)[C@@H](O)[C@@H](C)[C@H](OC(C)=O)[C@@H]1C` [RIFAMPIN] showed an MIC of 1 µg/mL (≈ 1.22 µM).
